Reference: publication PMC11256303 (ACS Omega, 2024)

Target: α-amylase
Test: in vitro α-amylase inhibition
Assay type: biochemical
Conditions: read-out: alpha-amylase IC50 ± SEM, standard acarbose

Compound	IC50 [µM]
Cc1ccc(/C=N\c2nsc(Nc3ccc(Cl)c(Cl)c3)n2)cc1 [Compound 4]	15.3 ± 0.3
COc1cccc(/C=N\c2nsc(Nc3ccc(Cl)c(Cl)c3)n2)c1 [Compound 5]	17.7 ± 0.3
Clc1ccc(/C=N\c2nsc(Nc3ccc(Cl)c(Cl)c3)n2)cc1Cl [Compound 6]	1.9 ± 0.1
Clc1ccc(Nc2nc(/N=C\c3ccc(Br)cc3)ns2)cc1Cl [Compound 7]	20.1 ± 0.4
COc1ccccc1/C=N\c1nsc(Nc2ccc(Cl)c(Cl)c2)n1 [Compound 8]	16.2 ± 0.3
FC(F)(F)c1cccc(Nc2nc(/N=C\c3ccc(Cl)cc3)ns2)c1 [Compound 13]	1.5 ± 0.1
FC(F)(F)c1cccc(Nc2nc(/N=C/c3ccc(Cl)cc3Cl)ns2)c1 [Compound 15, (E)-3-((2,4-dichlorobenzylidene)amino)-N-(3-(trifluoromethyl)phenyl)-1,2,4-thiadiazol-5-amine]	0.8 ± 0.05
